Reference: patent US9783859B2, “Method of screening and quantifying various enzymatic activities using artificial genetic circuits” (KOREA RESEARCH INSTITUTE OF BIOSCIENCE AND BIOTECHNOLOGY, priority 2009, dated 2017)

Experiments:
[1] = test system: artificial genetic circuit pGESS-EGFP (I) (dmpR); test: signals of artificial genetic circuit for various phenols, FACS fluorescence; type: cell-based, E. coli DH5α; details: 100 uM of each phenol derivative, 30° C. 18 hours
From the text: Whether the artificial genetic circuit senses the following phenol derivatives and the sensitivities of the genetic circuit to the phenol derivatives were examined: o-nitrophenol, m-nitrophenol, p-nitrophenol, o-chlorophenol, m-chlorophenol, p-chlorophenol, salicylic acid, 2-aminophenol, 2-methoxyphenol, o-cresol, m-cresol, p-cresol, catechol, resorcinol, 2-fluorophenol, 2-iodophenol, 2,4-dimethylphenol, 2,5-dimethylphenol, 3,4-dimethylphenol, 2,3-dimethylphenol, 3,5-dimethylphenol, 2,4-dichlorophenol, 2,5-dichlorophenol, 2,3-dichlorophenol, 2,6-dichlorophenol, 3,4-dichlorophenol, 3,5-dichlorophenol, 2,4-dinitrophenol, 3-methylcatechol, 2-ethylphenol, 3-ethylphenol, and benzene. Specifically, a single colony of E. coli DH5α containing pGESS-EGFP (I) was inoculated into LB liquid medium containing 50 μg/ml of ampicillin and was cultured overnight at 37° C. The culture was inoculated into LB medium containing 50 μg/ml of ampicillin to a concentration of 1% (v/v) and was cultured at 37° C. for about 8 hours until the OD600 of the cells reached 3. Then, 100 uM of each of the phenol derivatives was added to the culture which was then cultured with shaking at 30° C. for 18 hours. 100 μl of each culture was extracted, and the distribution of fluorescence in individual cells was examined by FACS. Each of the samples was tested three times, and the measurements were averaged.

[2] = test system: artificial genetic circuit pGESS-Cm (II); test: response of chloramphenicol resistance reporter circuit to phenol derivatives, OD600; type: cell-based, E. coli EPI300; details: 100 μM of each phenol derivative, 30 μg/ml chloramphenicol, 37° C. 8 hours
Experimental: In the case of the artificial genetic circuit comprising chloramphenicol resistance gene as the reporter, whether the genetic circuit responds to the substrates was examined. […] The culture was inoculated into 50 μg/ml ampicillin-containing LB liquid medium to a concentration of 1% (v/v), and then 30 μg/ml of chloramphenicol and 100 μM of each of the phenol derivatives were added thereto and the cells were cultured with shaking at 37° C. for 8 hours. Then, the OD600 of the cells was measured, thereby examining whether the genetic circuit responded to the phenol derivatives. As a control group, cells containing 100 μM of phenol without containing chloramphenicol were used.

[3] = test system: artificial genetic circuit pGESS-EGFP (I) (dmpR); type: cell-based, E. coli DH5α; details: 0.1-1000 μM tested, overnight at 30° C., LB medium
Experimental: The signals of the artificial genetic circuit for phenolic compounds were quantitatively analyzed. Specifically, a single colony of E. coli DH5α containing pGESS-EGFP (I) was inoculated into LB liquid medium containing 50 μg/ml of ampicillin and was cultured with shaking overnight at 37° C. The culture was inoculated into LB medium containing 50 μg/ml of ampicillin to a concentration of 1% (v/v), and 0.1-1000 μM of each of phenol, o-chlorophenol, m-chlorophenol, o-nitrophenol, catechol and resorcinol was added thereto and cultured with shaking overnight at 30° C. The cells were lysed, and the supernatant was analyzed by a fluorescence spectrometer (Varian, Australia), thereby measuring the fluorescence of GFP at 510 nm.

SMILES	response of the artificial genetic circuit (fluorescence, FACS) [1]	response of the artificial genetic circuit (chloramphenicol resistance, OD600) [2]	concentration from which fluorescence started to be sensed [3] [µM]
Nc1ccccc1O [2-aminophenol]	strongly responded	–	–
Oc1ccc(Cl)cc1 [p-chlorophenol]	weakly responded	weakly responded to or did not respond	–
O=[N+]([O-])c1cccc(O)c1 [m-nitrophenol]	weakly responded	strongly responded	–
Oc1cccc(Cl)c1 [m-chlorophenol]	weakly responded	strongly responded	1
Oc1cccc(O)c1 [resorcinol]	–	–	100
Cc1ccc(C)c(O)c1 [2,5-dimethylphenol]	weakly responded	–	–
Cc1cccc(O)c1 [m-cresol]	strongly responded	strongly responded	–
Oc1ccccc1F [2-fluorophenol]	strongly responded	strongly responded	–
O=[N+]([O-])c1ccccc1O [o-nitrophenol]	strongly responded	strongly responded	10
Oc1ccccc1Cl [o-chlorophenol]	strongly responded	strongly responded	≤ 0.1
Oc1cccc(Cl)c1Cl [2,3-dichlorophenol]	weakly responded	–	–
Oc1ccccc1I [2-iodophenol]	strongly responded	strongly responded	–
Cc1cccc(O)c1C [2,3-dimethylphenol]	weakly responded	strongly responded	–
Oc1cc(Cl)ccc1Cl [2,5-dichlorophenol]	weakly responded	–	–
O=[N+]([O-])c1ccc(O)cc1 [p-nitrophenol]	did not respond	weakly responded to or did not respond	–
Oc1ccccc1O [catechol]	strongly responded	strongly responded	10
Cc1ccccc1O [o-cresol]	strongly responded	strongly responded	–
COc1ccccc1O [2-methoxyphenol]	strongly responded	strongly responded	–
CCc1ccccc1O [2-ethylphenol]	strongly responded	strongly responded	–
Cc1ccc(O)cc1 [p-cresol]	weakly responded	weakly responded to or did not respond	–
